The values below come from PMC6472001, “Phenolic Compounds from Humulus lupulus as Natural Antimicrobial Products: New Weapons in the Fight against Methicillin Resistant Staphylococcus aureus, Leishmania mexicana and Trypanosoma brucei Strains” (Molecules, 2019).

Read-outs that look alike come from different tables or passages of the source. Bounds are passed on as bounds.

In one test the test system is S. aureus 08143 (MSSA). Put plainly: Broth microdilution MIC. Type of test: cell-based, Staphylococcus aureus. The following applies: for MIC: S. aureus 08143 (MSSA). How it is done: (§1) The protocol employed was inspired by Abedini et al. with some modifications. Products were solubilized in DMSO and serially diluted two-fold in MH medium. A bacterial suspension at 10^5 CFU/mL was added to obtain a final volume of 200 µL. Final phenolic product concentrations in wells ranged from 625 to 2.4 µg/mL (exception for lupulone for which dilutions were continued until 0.3 µg/mL). […] Plates were incubated overnight with stirring (60 rpm) at 37 °C.
In general terms: In broth dilution the organism is exposed to a series of concentrations in liquid medium.

A further test relates to S. aureus T26A4 (MSSA). In words: Broth microdilution MIC. In kind it is cell-based, Staphylococcus aureus. The conditions noted are these: for MIC: S. aureus T26A4 (MSSA). The procedure: as §1
The subject of a further test is S. aureus T25.10 (MRSA). Put plainly: Broth microdilution MIC. Type of test: cell-based, Staphylococcus aureus. The conditions noted are these: for MIC: S. aureus T25.10 (MRSA). The procedure:
as §1

Test [1] has as its system S. aureus T28.1 (MRSA). In words: Broth microdilution MIC. Type of test: cell-based, Staphylococcus aureus. The procedure: as §1
For the following experiments, the MRSA strain T28.1, isolated from a pathological sample of osteitis, was used. It was previously characterized by DNA biochips, which allowed highlighting some β-lactamases and the SCC-mec genes confirming the methicillin resistance. Moreover, genes for enzymes and proteins involved in the capsule biosynthesis (capH5, capJ5 and capK5) and several intracellular adhesion proteins implicated in biofilm formation (icaA, icaC and icaD) were present.

The subject of test [2] is Candida albicans ATCC 10231. In words: First screening, agar dilution MIC. Type of test: cell-based.
The subject of the next test is Candida albicans 13203. Put plainly: First screening, agar dilution MIC. In kind it is cell-based. (In agar dilution, organisms are placed on agar that contains the substance at set levels.)
Test [3] concerns J774 cells (monocyte macrophage). Put plainly: Cytotoxicity / antiproliferative effect. Type of test: cell-based, mouse. How it is done:
(§2) Several human cell lines were used for the cytotoxic bioassays: non-cancer lung fibroblasts (WI-38), hepatocellular carcinoma (Hep-G2), osteosarcoma (MG-63) and the mouse monocyte macrophage J774. Cells were seeded into wells of a 96-well microplate in a Gibco™ Dulbecco’s modified eagles medium (DMEM), except for MG-63 which were cultivated in a minimum essential medium (MEM) (ThermoFisher Scientific, Illkirch-Graffenstaden, France). Both media were enriched with 10% FBS (ThermoFisher Scientific, France) and some antibiotics (mixture penicillin/streptomycin 100 UI/mL, Sigma Aldrich). After one or two days at 37 °C (5% of CO2), wells were emptied by suction. Cells were then treated with hops compounds (xanthohumol, desmethylxanthohumol, humulone, lupulone) in DMSO at 0.2% in the culture medium, to obtain a final volume of 100 µL in wells (negative control: 0.2% DMSO). Camptothecin was used as a positive control. After 48 to 72 h exposure, culture medium was replaced by 10% of Alamar blue or 3-(4,5-dimethylthiazol-2-yl)-2,5-diphenyltetrazolium bromide (MTT) in the medium (ThermoFisher Scientific®, Illkirch, France) and plates were incubated the time necessary to the reaction. Results were measured respectively by fluorescence (excitation 530 nm and emission 590 nm) or by optical density at 550 nm. The IC50 of each product was determined using GraphPad Prism (version 5.01).

For test [4], the system named is Hep-G2 cells (hepatocellular carcinoma). In words: Cytotoxicity / antiproliferative effect. Type of test: cell-based, human. The following applies: Homo sapiens. How it is done: as §2
Test [5] relates to WI-38 cells (non-cancer lung fibroblasts). Put plainly: Cytotoxicity / antiproliferative effect. Type of test: cell-based, human. How it is done: as §2
Test [6] has as its system MG-63 cells (osteosarcoma). Put plainly: cells. In kind it is cell-based, human. The following applies: Homo sapiens, MG-63. How it is done: as §2
Test [7] concerns S. aureus T28.1 (MRSA). In words: Synergies by checkerboard method. Type of test: cell-based, Staphylococcus aureus. The procedure: Checkerboard method was used to assess the potential co-action of xanthohumol, desmethylxanthohumol and lupulone between them or with some antibiotics. Antibiotics were previously selected on the basis of a first screening using E-tests (BioMérieux®, France). […] Each test was performed on a 96-well microplate using an 8-by-8 well configuration. […] Wells were filled with 100 µL of MH medium, 10 µL of each compound (DMSO for products and water for antibiotics) and 80 µL of a 10^5 CFU/mL bacterial suspension with appropriate solvent controls. […] The MIC of each product alone was checked at each test. Microplates were incubated overnight at 60 rpm and 37 °C.
After visual analysis, the combination with the highest activity was determined by the calculation of the fractional inhibitory concentration (FIC) index, interpreted as synergistic (FIC < 0.5), additive (0.5 ≤ FIC ≤ 1), indifferent (1 < FIC ≤ 4) or antagonist (FIC > 4).
FIC index=MIC A with B/MIC A alone+ MIC B with A/MIC B alone

For test [8], the system named is Leishmania mexicana mexicana (Lmm). In words: Antiparasitic activity, broth microdilution. In kind it is cell-based. How it is done: (§3) Tbb were cultivated in HMI9 medium containing 10% heat-inactivated foetal bovine serum (FBS) (Sigma-Aldrich), […] L-cysteine and […] beta-mercaptoethanol at 37 °C (CO2 5%). Lmm (MHOM/BZ/84/BEL46) were cultivated in SDM-79 medium (Gibco) supplemented with 15% heat-inactivated FBS (Sigma-Aldrich) and 5 mg/L hemin at 28 °C (CO2 5%). Antiparasitic bioassays were performed as described by Bero et al.. Suramin (SUR) and pentamidine (PEN) were used as positive controls respectively. The hops compounds (xanthohumol, desmethylxanthohumol, humulone, lupulone) concentration that inhibits 50% of the cell viability (IC50) was determined using GraphPad Prism, version 5.01 (GraphPad Software, San Diego, CA, USA).

In test [9] the test system is Trypanosoma brucei brucei (Tbb). Put plainly: Antiparasitic activity, broth microdilution. Type of test: cell-based. How it is done: as §3
The mark [10] stands for this setting: Staphylococcus aureus, read-out: MIC.
The mark [11] stands for this setting: Staphylococcus aureus, value in parentheses, read-out: MIC.
Where [12] appears, read: Staphylococcus aureus, S. aureus T28.1 (MRSA), read-out: MIC.
Setting [13] is: Staphylococcus aureus, S. aureus T28.1 (MRSA), value in parentheses, read-out: MIC.
The mark [14] stands for this setting: value in parentheses, read-out: IC50 (converted).
Setting [15] is: value in parentheses, read-out: MIC.

As a reminder, the MIC is the lowest concentration found to suppress growth. Take `CC(C)=CCC1=C(O)C(O)(CC=C(C)C)C(=O)C(C(=O)C(C)C)=C1O` (stereo in doubt) [Cohumulone, cohumulone]: the MIC in the test with S. aureus 08143 (MSSA) (setting [10]) stood at 313 µg/mL; in the test with S. aureus 08143 (MSSA) (setting [11]), 899 µM; in the test on S. aureus T26A4 (MSSA) (setting [10]), 313 µg/mL; in the test with S. aureus T26A4 (MSSA) (setting [11]), 899 µM; with S. aureus T25.10 (MRSA) (setting [10]), 313 µg/mL; in the test with S. aureus T25.10 (MRSA) (setting [11]), 899 µM. The MIC with S. aureus T28.1 (MRSA) [1] (setting [12]) was determined as 156 µg/mL; in the test with S. aureus T28.1 (MRSA) [1] (setting [13]) it was 448 µM.

In the case of `C[C@@H]1[C@H](O)[C@@H](C)/C=C/C=C/C=C/C=C/C=C/C=C/C=C/[C@H](O[C@@H]2O[C@H](C)[C@@H](O)[C@H](N)[C@@H]2O)C[C@@H]2O[C@](O)(C[C@@H](O)C[C@@H](O)[C@H](O)CC[C@@H](O)C[C@@H](O)CC(=O)O[C@H]1C)C[C@H](O)[C@H]2C(=O)O` [AMB, Amphotericin B], the “Susceptibility to AMB” value (in test [2]; in the test with Candida albicans 13203) was “S (Amphotericin B (AMB) S ≤ 1)” each time.

The term IC50 denotes the concentration at which inhibition is half-maximal. In the case of `CC[C@@]1(O)C(=O)OCc2c1cc1n(c2=O)Cc2cc3ccccc3nc2-1` [CAMP, camptothecin], the concentration for half-maximal inhibition (IC50) in [3] (Mus musculus, read-out: IC50 ± SD) is 0.01 µg/mL; in test [3] (Mus musculus, value in parentheses, read-out: IC50 (converted)), 0.03 µM; in test [4] (HepG2, read-out: IC50 ± SD) it was 0.4 ± 0.2 µg/mL; in test [4] (HepG2, value in parentheses, read-out: IC50 (converted)) it was 1.15 µM; in test [5] (Homo sapiens, read-out: IC50 ± SD), 0.06 µg/mL; in [5] (Homo sapiens, value in parentheses, read-out: IC50 (converted)), 0.17 µM. Besides, the concentration for half-maximal inhibition (IC50) in test [6] (read-out: IC50 ± SD) is 4.4 ± 1.5 µg/mL; in test [6] (setting [14]), 12.6 µM.

Take `CC(C)=CCC1=C(O)C(CC=C(C)C)(CC=C(C)C)C(=O)C(C(=O)C(C)C)=C1O` [Colupulone, colupulone]: the MIC in the test with S. aureus 08143 (MSSA) (setting [10]) amounted to 78 µg/mL; with S. aureus 08143 (MSSA) (setting [11]), 195 µM; in the test on S. aureus T26A4 (MSSA) (setting [10]), 39 µg/mL; in the test on S. aureus T26A4 (MSSA) (setting [11]), 97.5 µM; with S. aureus T25.10 (MRSA) (setting [10]), 78 µg/mL; with S. aureus T25.10 (MRSA) (setting [11]) it was 195 µM. In addition, the minimal inhibitory concentration (MIC) with S. aureus T28.1 (MRSA) [1] (setting [12]) was determined as 39 µg/mL; in the test with S. aureus T28.1 (MRSA) [1] (setting [13]) it was 97.5 µM.

With `OC(Cn1cncn1)(Cn1cncn1)c1ccc(F)cc1F` [FLC, Fluconazole], the results for the “Susceptibility to FLC” value (in [2]; in the test on Candida albicans 13203) were “S (Fluconazole (FLC) S ≤ 2)” and “R (R > 4)”, respectively.

As to `COc1cc(O)c(CC=C(C)C)c2c1C(=O)CC(c1ccc(O)cc1)O2` (stereo not shown) [Isoxanthohumol, isoxanthohumol], in the test with S. aureus T28.1 (MRSA) [1] (Staphylococcus aureus, strain MRSA T28.1, read-out: MIC), the minimal inhibitory concentration (MIC) turned out to be 39 µg/mL.

With `Cc1onc(-c2ccccc2)c1C(=O)N[C@@H]1C(=O)N2[C@@H]1SC(C)(C)[C@@H]2C(=O)O` [OXA, oxacillin], the “Susceptibility to OXA” value in the test with S. aureus 08143 (MSSA) (S. aureus 08143) is “S (S ≤ 2 µg/mL)”; in the test on S. aureus T26A4 (MSSA) (S. aureus T26A4), “S (S ≤ 2 µg/mL)”; with S. aureus T25.10 (MRSA) (S. aureus T25.10), “R (R ≥ 4 µg/mL)”; with S. aureus T28.1 (MRSA) [1] (S. aureus T28.1), “R (R ≥ 4 µg/mL)”. The “MIC for oxacillin in combination” value in the test with S. aureus T28.1 (MRSA) [7] (in the presence of lupulone) and in the test with S. aureus T28.1 (MRSA) [7] (in the presence of xanthohumol) was under 2 µg/mL throughout.

With `N=C(N)c1ccc(OCCCCCOc2ccc(C(=N)N)cc2)cc1` [PEN, pentamidine], the half-maximal inhibitory concentration (IC50) in test [8] (Leishmania mexicana, read-out: IC50 (converted)) was 0.07 µg/mL; in test [8] (Leishmania mexicana, value in parentheses, read-out: IC50 (converted)) it was 0.21 µM.

Take `Cc1ccc(C(=O)Nc2ccc(S(=O)(=O)O)c3cc(S(=O)(=O)O)cc(S(=O)(=O)O)c23)cc1NC(=O)c1cccc(NC(=O)Nc2cccc(C(=O)Nc3cc(C(=O)Nc4ccc(S(=O)(=O)O)c5cc(S(=O)(=O)O)cc(S(=O)(=O)O)c45)ccc3C)c2)c1` [SUR, suramin]: the concentration for half-maximal inhibition (IC50) in [9] (Trypanosoma brucei, read-out: IC50 (converted)) was 0.05 µg/mL; in [9] (Trypanosoma brucei, value in parentheses, read-out: IC50 (converted)) it was 0.038 µM.

In the case of `C[C@@H](c1ncncc1F)[C@](O)(Cn1cncn1)c1ccc(F)cc1F` [VRC, Voriconazole], the “Susceptibility to VRC” value in test [2] was “S (Voriconazole (VRC) S ≤ 0.12)”; in the test on Candida albicans 13203, “R (R > 0.12)”.

In the case of `CO[C@H]1/C=C/O[C@@]2(C)Oc3c(C)c(O)c4c(O)c(c(/C=N/N5CCN(C)CC5)c(O)c4c3C2=O)NC(=O)/C(C)=C\C=C\[C@H](C)[C@H](O)[C@@H](C)[C@@H](O)[C@@H](C)[C@H](OC(C)=O)[C@@H]1C` [rifampicin], the “times more active when combined” value with S. aureus T28.1 (MRSA) [7] (rifampicin combined with xanthohumol) was 8 times.

With humulone, the MIC came to 156 µg/mL in the test on S. aureus 08143 (MSSA); 430.9 µM in the test with S. aureus 08143 (MSSA) (setting [15]); 156 µg/mL against S. aureus T26A4 (MSSA); 430.9 µM with S. aureus T26A4 (MSSA) (setting [15]); 156 µg/mL against S. aureus T25.10 (MRSA); 430.9 µM in the test on S. aureus T25.10 (MRSA) (setting [15]). The MIC in the test on S. aureus T28.1 (MRSA) [1] (S. aureus T28.1 (MRSA)) stood at 78 µg/mL; in the test with S. aureus T28.1 (MRSA) [1] (S. aureus T28.1 (MRSA), value in parentheses, read-out: MIC), 215.5 µM. For the same compound, the “IC50 ± SD” value in [3] was 11.5 ± 0.3 µg/mL; in test [5], 10.5 ± 2.3 µg/mL. Besides, the concentration for half-maximal inhibition (IC50) in [3] (setting [14]) was 31.7 µM; in test [5] (setting [14]) it was 29 µM; in [8], 28.8 ± 1.5 µg/mL; in test [8] (setting [14]) it was 77.9 µM; in test [9], 10.9 ± 0.8 µg/mL; in [9] (setting [14]), 30.1 µM.
